Source: publication PMC4854315, “Discovery of a novel allosteric inhibitor-binding site in ERK5: comparison with the canonical kinase hinge ATP-binding site” (Acta Crystallographica. Section D, Structural Biology, 2016)

Legend:
recombinant human ERK5 = target: T1, recombinant human ERK5 (Homo sapiens, UniProt Q13164); assay: TR-FRET (LANCE Ultra) biochemical assay of ERK5 kinase activity; details: TR-FRET enzymatic assay, phosphorylated ERK5; read-out: ERK5 IC50
T1 construct: Catalytically active kinase domain of recombinant human ERK5 enzyme was purchased from Carna Biosciences; purchased Carna Biosciences
T1 sequence (Q13164 55-347 limits assumed): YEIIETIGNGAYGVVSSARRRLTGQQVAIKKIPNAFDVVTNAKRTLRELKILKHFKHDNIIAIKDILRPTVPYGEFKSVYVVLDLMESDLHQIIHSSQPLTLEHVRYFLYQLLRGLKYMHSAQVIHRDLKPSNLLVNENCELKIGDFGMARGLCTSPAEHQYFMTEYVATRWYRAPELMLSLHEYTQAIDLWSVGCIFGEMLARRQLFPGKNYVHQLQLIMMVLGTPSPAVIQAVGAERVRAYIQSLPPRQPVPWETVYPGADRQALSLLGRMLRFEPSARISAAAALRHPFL
Method: Catalytically active kinase domain of recombinant human ERK5 enzyme was purchased from Carna Biosciences. […] The inhibitory potency of compounds against ERK5 was evaluated using the LANCE Ultra technology from PerkinElmer according to the manufacturer’s instructions. Briefly, 3 µl of different concentrations of ATP and 100 nM ULight-eIF4E-binding protein 1 (Thr37/46) peptide (Perkin-Elmer catalogue No. TRF0128) were incubated in the presence of serially diluted compound or DMSO control at room temperature in 384-well Greiner white polystyrene assay plates. The reaction was initiated by the addition of 3 µl of 10 nM kinase. The assay buffer consisted of 1 mM DTT, 10 mM MgCl2, 1 mM EGTA, 0.01%(v/v) Tween 20 in 50 mM HEPES pH 7.5. After 60 min incubation, the reaction was stopped by the addition of 6 µl stop/detection reagent mixture consisting of 20 mM EDTA and 4 nM Eu-anti-phospho-eIF4E-binding protein 1 (Thr37/46) antibody (PerkinElmer catalogue No. TRF0216) diluted in detection buffer. The plates were incubated for 1 h before the fluorescence was measured at 615 and 665 nm with an excitation wavelength of 320 nm using an EnVision Multilabel Reader from Perkin-Elmer in time-resolved fluorescence resonance energy transfer (TR-FRET) mode. The calculated signal ratio at 665/615 nm is proportional to the kinase activity. The concentration of compound producing 50% inhibition of the kinase activity (IC50) was calculated by using GraphPad Prism to fit the data to a symmetrical sigmoidal curve.

ERK5 = test system: ERK5; design: method as in Deng et al., 2013; details: Data retrieved from the literature; ref Deng et al., 2013; cited from earlier work

Row | IC50 (recombinant human ERK5) [µM] | Structure (SMILES) | IC50 (ERK5) [µM]
1 | > 10 | CC(C)NC(=O)n1nc(N)nc1Nc1ccc(Cl)cc1 [Compound 4] | 
2 |  | COc1cc(C(=O)N2CCC(N3CCN(C)CC3)CC2)ccc1Nc1ncc2c(n1)N(C1CCCC1)c1ccccc1C(=O)N2C [Compound 1] | 0.082
3 | > 10 | CC(NC(=O)n1nc(N)nc1Nc1ccc(Cl)cc1)c1ccccc1 (stereo not drawn) [Compound 6] | 
